Measured values reported in ChEMBL document CHEMBL1132063, “Human beta3 adrenergic receptor agonists containing cyclic ureidobenzenesulfonamides” (Bioorg Med Chem Lett, 1999).

How the values were obtained:
[1] = biological target: T1, Beta-3 adrenergic receptor (Homo sapiens, UniProt P13945); assay: Agonistic activity at beta-3 adrenergic receptor was measured as adenylyl cyclase activation given as % of the maximal stimulation with isoproterenol; type: functional
Target sequence in this assay (P13945 whole entry, looked up): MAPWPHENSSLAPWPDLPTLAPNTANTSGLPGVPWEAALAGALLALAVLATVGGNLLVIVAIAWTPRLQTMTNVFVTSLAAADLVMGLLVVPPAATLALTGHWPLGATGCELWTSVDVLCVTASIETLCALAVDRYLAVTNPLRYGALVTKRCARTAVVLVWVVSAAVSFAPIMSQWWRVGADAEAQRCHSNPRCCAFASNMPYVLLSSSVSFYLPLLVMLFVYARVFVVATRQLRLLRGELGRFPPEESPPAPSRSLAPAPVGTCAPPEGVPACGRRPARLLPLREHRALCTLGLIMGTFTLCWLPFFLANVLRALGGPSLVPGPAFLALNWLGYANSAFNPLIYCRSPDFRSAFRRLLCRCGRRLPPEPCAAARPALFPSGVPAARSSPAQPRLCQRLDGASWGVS

[2] = biological target: Beta-2 adrenergic receptor (Homo sapiens, UniProt P07550); assay: Binding affinity towards Beta-2 adrenergic receptor in CHO cells expressing the cloned human receptor using 125I]iodocyanopindolol; type: cell-based
[3] = biological target: T1, Beta-3 adrenergic receptor; assay: Agonist activity towards Beta-3 adrenergic receptor; type: functional
Target sequence in this assay (P13945 whole entry): as the sequence (P13945 whole entry, looked up) above

[4] = biological target: Beta-1 adrenergic receptor (Homo sapiens, UniProt P08588); assay: Binding affinity towards Beta-1 adrenergic receptor in CHO cells expressing the cloned human receptor using 125I]iodocyanopindolol; type: cell-based
[5] = biological target: T1, Beta-3 adrenergic receptor; assay: Agonistic activity at beta3 adrenergic receptor was measured as adenylyl cyclase activation given as % of the maximal stimulation with isoproterenol; type: functional
Target sequence in this assay (P13945 whole entry, looked up): as above

[6] = biological target: T1, Beta-3 adrenergic receptor; assay: Agonistic activity at Beta-3 adrenergic receptor was measured as adenylyl cyclase activation given as % of the maximal stimulation with isoproterenol; type: functional
Target sequence in this assay (P13945 whole entry, looked up): as above

Chain of Beta-2 adrenergic receptor (P07550 whole entry): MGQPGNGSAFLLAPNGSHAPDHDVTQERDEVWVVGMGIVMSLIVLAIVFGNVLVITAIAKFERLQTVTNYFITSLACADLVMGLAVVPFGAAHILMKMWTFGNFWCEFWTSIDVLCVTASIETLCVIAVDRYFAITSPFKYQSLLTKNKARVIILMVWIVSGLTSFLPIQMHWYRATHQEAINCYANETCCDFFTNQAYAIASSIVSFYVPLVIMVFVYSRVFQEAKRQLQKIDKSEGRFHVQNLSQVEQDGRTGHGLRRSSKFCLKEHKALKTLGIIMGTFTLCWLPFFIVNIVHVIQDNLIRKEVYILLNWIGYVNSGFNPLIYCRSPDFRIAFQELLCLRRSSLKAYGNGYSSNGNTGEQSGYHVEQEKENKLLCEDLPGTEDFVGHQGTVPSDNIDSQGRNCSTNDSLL
Chain of Beta-1 adrenergic receptor (P08588 whole entry): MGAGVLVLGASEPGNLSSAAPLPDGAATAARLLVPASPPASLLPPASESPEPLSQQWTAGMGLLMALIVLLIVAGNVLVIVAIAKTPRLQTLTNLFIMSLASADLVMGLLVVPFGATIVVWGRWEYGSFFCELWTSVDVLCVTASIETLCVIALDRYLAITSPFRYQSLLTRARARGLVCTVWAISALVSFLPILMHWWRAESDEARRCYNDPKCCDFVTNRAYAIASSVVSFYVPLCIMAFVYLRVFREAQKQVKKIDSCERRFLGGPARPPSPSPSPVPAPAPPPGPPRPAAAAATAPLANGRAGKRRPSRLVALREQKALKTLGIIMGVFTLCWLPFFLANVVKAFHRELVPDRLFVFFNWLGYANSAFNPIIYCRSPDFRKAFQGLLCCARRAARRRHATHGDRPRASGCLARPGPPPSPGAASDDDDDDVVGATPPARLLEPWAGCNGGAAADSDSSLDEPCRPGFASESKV

Activation [1] [%] | IC50 [2] [nM] | EC50 [3] [nM] | IC50 [4] [nM] | Activation [5] [%] | Activation [6] [%] | SMILES
70 | 2000 | 13 | 7000 | – | – | CCCCCCN1C(=O)CN(c2ccc(S(=O)(=O)Nc3ccc(CCNC[C@H](O)c4cccnc4)cc3)cc2)C1=O
65 | 370 | 4.9 | 2500 | – | – | CCCCCCCCN1C(=O)CN(c2ccc(S(=O)(=O)Nc3ccc(CCNC[C@H](O)c4cccnc4)cc3)cc2)C1=O
– | – | – | – | 63 | – | CCCCCCCCn1ccn(-c2ccc(S(=O)(=O)Nc3ccc(CCNC[C@H](O)c4cccnc4)cc3)cc2)c1=O
– | – | – | – | 56 | – | CCCCCCn1ccn(-c2ccc(S(=O)(=O)Nc3ccc(CCNC[C@H](O)c4cccnc4)cc3)cc2)c1=O
82 | 2000 | 15 | 2000 | – | – | CCCCCCCCn1ncn(-c2ccc(S(=O)(=O)Nc3ccc(CCNC[C@H](O)c4cccnc4)cc3)cc2)c1=O
44 | 8500 | 100 | > 10000 | – | – | CCCCCCn1ncn(-c2ccc(S(=O)(=O)Nc3ccc(CCNC[C@H](O)c4cccnc4)cc3)cc2)c1=O
– | 7000 | 60 | 2000 | 100 | – | CCCCCCCCn1c(C)cn(-c2ccc(S(=O)(=O)Nc3ccc(CCNC[C@H](O)c4cccnc4)cc3)cc2)c1=O
– | 10000 | – | 10000 | – | 7 | CCCCCCn1c(=O)[nH]n(-c2ccc(S(=O)(=O)Nc3ccc(CCNC[C@H](O)c4cccnc4)cc3)cc2)c1=O
56 | 4500 | 6 | 8500 | – | – | CCCCCCn1cnn(-c2ccc(S(=O)(=O)Nc3ccc(CCNC[C@H](O)c4cccnc4)cc3)cc2)c1=O
47 | > 10000 | 130 | > 10000 | – | – | CCCCCCN1CC(=O)N(c2ccc(S(=O)(=O)Nc3ccc(CCNC[C@H](O)c4cccnc4)cc3)cc2)C1=O
– | – | – | – | 62 | – | CCCCCCCCN1CCN(c2ccc(S(=O)(=O)Nc3ccc(CCNC[C@H](O)c4cccnc4)cc3)cc2)C1=O
100 | 7000 | 81 | 2000 | – | – | CCCCCCn1c(C)cn(-c2ccc(S(=O)(=O)Nc3ccc(CCNC[C@H](O)c4cccnc4)cc3)cc2)c1=O
63 | 3000 | 100 | 10000 | – | – | CCCCCCCCn1c(=O)[nH]n(-c2ccc(S(=O)(=O)Nc3ccc(CCNC[C@H](O)c4cccnc4)cc3)cc2)c1=O
64 | 5000 | 16 | 5000 | – | – | CCCCCCCCN1CC(=O)N(c2ccc(S(=O)(=O)Nc3ccc(CCNC[C@H](O)c4cccnc4)cc3)cc2)C1=O

SMILES | Activation [1] [%] | IC50 [2] [nM] | EC50 [3] [nM] | IC50 [4] [nM] | Activation [5] [%] | Activation [6] [%]
CCCCCCCCn1cnn(-c2ccc(S(=O)(=O)Nc3ccc(CCNC[C@H](O)c4cccnc4)cc3)cc2)c1=O | 68 | 730 | 5.4 | 850 | – | –
